Patent US20250361234A1 (NICO THERAPEUTICS, INC., priority 2022, published 2025)

Molecular target: T1, full-length SARM1 (FL-SARM1) (Homo sapiens, UniProt Q6SZW1)
T1 sequence (Q6SZW1 28-724): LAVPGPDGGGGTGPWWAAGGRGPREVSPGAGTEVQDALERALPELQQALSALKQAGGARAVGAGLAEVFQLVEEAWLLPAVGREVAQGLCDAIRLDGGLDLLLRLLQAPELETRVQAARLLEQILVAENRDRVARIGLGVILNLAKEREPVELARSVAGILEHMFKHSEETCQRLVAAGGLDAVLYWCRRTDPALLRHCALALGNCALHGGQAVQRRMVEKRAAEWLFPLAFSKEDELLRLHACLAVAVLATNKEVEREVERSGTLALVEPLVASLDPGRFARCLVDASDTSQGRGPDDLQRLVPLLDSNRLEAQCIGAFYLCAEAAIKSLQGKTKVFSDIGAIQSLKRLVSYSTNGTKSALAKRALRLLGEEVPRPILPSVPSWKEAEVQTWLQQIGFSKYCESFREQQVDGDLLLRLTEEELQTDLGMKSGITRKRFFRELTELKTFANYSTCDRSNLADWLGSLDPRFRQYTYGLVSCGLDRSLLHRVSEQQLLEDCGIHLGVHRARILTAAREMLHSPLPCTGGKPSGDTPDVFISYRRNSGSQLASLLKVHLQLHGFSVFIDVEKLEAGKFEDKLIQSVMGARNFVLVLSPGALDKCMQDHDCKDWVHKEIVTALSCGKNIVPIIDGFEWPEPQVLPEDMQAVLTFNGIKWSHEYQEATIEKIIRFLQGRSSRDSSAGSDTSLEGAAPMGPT
Experiment: FL-SARM1 cellular lysate assay (NAD/NADH-Glo readout of remaining NAD+)
Settings: SARM1 cellular lysate from transfected HEK293T cells, NAD+ and NMN, 11 point curve
Protocol: Preparation of full-length SARM1 (FL-SARM1) lysate: HEK293T cells (ATCC: CRL-3216) were grown on 150 mm TC-treated dishes to 80-90% confluency in complete DMEM (Thermo Fisher: 11965175) supplemented with 10% HI-FBS (VWR: 10802-772), 1× Pen/Strep (Thermo Fisher: 15140122), 1× NEAA (Thermo Fisher: 1140050), 1× glutamax (Thermo Fisher: 35050061), and 1 mM sodium pyruvate (Thermo Fisher: 11360070)) at 37° C. and 5% CO2. One hour prior to transfection, the media was replaced with fresh, 37° C. complete DMEM (20 mL per one 150 mm dish) supplemented with additional 10 mM glucose (Alfa Aesar AAJ60067EQE). Per one 150 mm dish, 30 μg FL-SARM1 (SEQ. ID. 1; cloned in-house) plasmid was dissolved in 1 mL DMEM at ambient temperature and were mixed by inverting the tube 8-10 times. 90 μL of GenJet™ in vitro DNA transfection reagent (Ver2) was dissolved in 1 mL DMEM at ambient temperature and were mixed by inverting the tube 8-10 times. The plasmid and transfection agent solutions were combined, mixed by 8-10 inversions and incubated for 10 minutes at ambient temperature. 2 mL of this transfection mixture was added to each dish containing HEK293T cells as prepared above followed by a gentle mixing of 4-5 horizontal rotations. The dishes were incubated at 37° C. and 5% CO2 for 24 h. The dishes were removed from the incubator, the medium was aspirated and the cells were scraped off using cell scrapers in ice-cold 1× PBS (5 mL/dish, Thermo Fisher Scientific 10010023). The collected cells were centrifuged at 300 g for 5 minutes at 4° C. The supernatant was aspirated and the pellet was frozen at −80° C. until needed. The cell pellet from 30 dishes was dissolved in 30 mL 1× PBS supplemented with 4 tablets of Complete, Mini EDTA-free protease inhibitor cocktail at 4° C. This mixture was sonicated on ice for 10 minutes at 50% amplitude with a 1 second on/1 second off interval using a Model 120 sonicator (Thermo Fisher Scientific, FB120110). The lysate was centrifuged at 16000 g for 10 minutes at 4° C.
To a white 384-well Proxiplate (PerkinElmer, PE-6008280) was added 50 nL/well of a DMSO solution containing test compounds followed by 7.5 mL/well of a 0.067 mg/mL solution of SARM1 cellular lysate in reaction buffer (DPBS containing CHAPSO (0.1%) and fatty acid free BSA (0.032%)). The plate was centrifuged for 1 minute at 1000 RPM and then placed in an incubator at 23° C. for 15 minutes. To the wells were added 2.5 mL/well of a solution containing 40 mM NAD^+ and 4 mM NMN in reaction buffer. The plate was centrifuged for 1 min at 1000 RPM, the plate was sealed and placed in an incubator at 23° C. for 3.5 hours before adding 3.5 mL/well of NAD/NADH-Glo™ solution (preparation as described by Promega using the extended detection protocol). The plate was centrifuged for 1 minute at 1000 RPM and then incubated at 23° C. for 20 minutes. 1 mL/well of a 3.625 mM solution of menadione in DMSO was added and the plate was centrifuged for 1 minute at 1000 RPM. […] Percent inhibition was calculated as follows:
IC50 values were calculated from an 11 point curve using ½ log dilutions using a four-parameter logistic regression curve fit.

SMILES	IC50 (Activity (μM))	IC50 (Activity)
Cc1ccc(NC(=O)N2C3CCCC2C3)cc1-c1cncc(C#N)c1 [Example 72, N-(3-(5-cyanopyridin-3-yl)-4-methylphenyl)-6-azabicyclo[3.1.1]heptane-6-carboxamide]	0.1 µM	0.0001 to 1 µM
Cc1ccc(NC(=O)N2C3CC2CC2(CC2)C3)cc1-c1cncc(F)c1 [Example 54, N-(3-(5-fluoropyridin-3-yl)-4-methylphenyl)-6-azaspiro[bicyclo[3.1.1]heptane-3,1′-cyclopropane]-6-carboxamide]	0.06 µM	0.0001 to 1 µM
Cc1ccc(NC(=O)[C@H]2C[C@@H](C3CC3)C2)cc1-c1cncc(F)c1 [Example 109, cis-3-cyclopropyl-N-[3-(5-fluoropyridin-3-yl)-4-methylphenyl]cyclobutane-1-carboxamide]	0.5 µM	0.0001 to 1 µM
Cc1ccc(NC(=O)N2C3CCC2CC3)cc1-c1cncc(F)c1 [Example 97, N-[3-(5-fluoropyridin-3-yl)-4-methylphenyl]-7-azabicyclo[2.2.1]heptane-7-carboxamide]	0.4 µM	0.0001 to 1 µM
C[C@H]1CC2C[C@@H](C1)N2C(=O)Nc1ccc(Cl)c(-c2cncc(F)c2)c1 (single isomer, unassigned) [Example 80, cis-N-(4-chloro-3-(5-fluoropyridin-3-yl)phenyl)-3-methyl-6-azabicyclo[3.1.1]heptane-6-carboxamide]	0.07 µM	0.0001 to 1 µM
Cc1ccc(NC(=O)N2C3C[C@H](OC(F)F)C[C@@H]2C3)cc1-c1cncc(F)c1 [Example 29, cis-3-(difluoromethoxy)-N-(3-(5-fluoropyridin-3-yl)-4-methylphenyl)-6-azabicyclo[3.1.1]heptane-6-carboxamide]	0.1 µM	0.0001 to 1 µM
COc1cncc(-c2cc(NC(=O)N3[C@@H]4C[C@@H](C)C[C@@]3(c3nnc(C)o3)C4)c(F)cc2C(F)(F)F)c1 (single isomer, unassigned) [Example 123, cis-N-(2-fluoro-5-(5-methoxypyridin-3-yl)-4-(trifluoromethyl)phenyl)-3-methyl-1-(5-methyl-1,3,4-oxadiazol-2-yl)-6-azabicyclo[3.1.1]heptane-6-carboxamide]	0.006 µM	0.0001 to 1 µM
Cc1ccc(NC(=O)N2C3C[C@H](CF)C[C@@H]2C3)cc1-c1cncc(F)c1 [Example 1, cis-3-(fluoromethyl)-N-(3-(5-fluoropyridin-3-yl)-4-methylphenyl)-6-azabicyclo[3.1.1]heptane-6-carboxamide]	0.06 µM	0.0001 to 1 µM
Cc1ccc(NC(=O)N2CCCCC2C)cc1-c1cncc(F)c1 (racemic) [Example 32, N-(3-(5-fluoropyridin-3-yl)-4-methylphenyl)-2-methylpiperidine-1-carboxamide]	1.9 µM	1 to 10 µM
Cc1ccc(NC(=O)[C@@H]2CC2(F)F)cc1-c1cnc(C(F)(F)F)nc1 [Example 113, (1S)-2,2-difluoro-N-[4-methyl-3-[2-(trifluoromethyl)pyrimidin-5-yl]phenyl]cyclopropane-1-carboxamide]	34.4 µM	> 10 µM
COc1ncccc1-c1cc(NC(=O)N2C3CCCC2C3)ccc1C [Example 68, N-(3-(2-methoxypyridin-3-yl)-4-methylphenyl)-6-azabicyclo[3.1.1]heptane-6-carboxamide]	2.5 µM	1 to 10 µM
Cc1ccc(NC(=O)N2C3CC(=O)CC2C3)cc1-c1cncc(F)c1 [Example 38, N-(3-(5-fluoropyridin-3-yl)-4-methylphenyl)-3-oxo-6-azabicyclo[3.1.1]heptane-6-carboxamide]	2.3 µM	1 to 10 µM
Cc1ccc(NC(=O)N2C3CCCC2C3)cc1-c1cncc(OCF)c1 [Example 45, N-(3-(5-(fluoromethoxy)pyridin-3-yl)-4-methylphenyl)-6-azabicyclo[3.1.1]heptane-6-carboxamide]	0.06 µM	0.0001 to 1 µM
Cc1ccc(NC(=O)[C@@H]2CC2(F)F)cc1-c1cncc(F)c1 [Example 110, (S)-2,2-difluoro-N-(3-(5-fluoropyridin-3-yl)-4-methylphenyl)cyclopropanecarboxamide]	8.2 µM	1 to 10 µM
Cc1ccc(NC(=O)N2C3CCC2(C)CC3)cc1-c1cncc(F)c1 [Example 5, N-(3-(5-fluoropyridin-3-yl)-4-methylphenyl)-1-methyl-7-azabicyclo[2.2.1]heptane-7-carboxamide]	0.3 µM	0.0001 to 1 µM
COC(=O)[C@H]1CCC2C[C@@H]1N2C(=O)Nc1ccc(C)c(-c2cncc(F)c2)c1 [Example 40, cis-methyl 6-((3-(5-fluoropyridin-3-yl)-4-methylphenyl)carbamoyl)-6-azabicyclo[3.1.1]heptane-2-carboxylate]	20.9 µM	> 10 µM
COC[C@H]1CC[C@H]2CC1N2C(=O)Nc1ccc(C)c(-c2cncc(F)c2)c1 [Example 15, cis-N-(3-(5-fluoropyridin-3-yl)-4-methylphenyl)-2-(methoxymethyl)-6-azabicyclo[3.1.1]heptane-6-carboxamide]	1.7 µM	1 to 10 µM
COC(=O)[C@H]1CC2C[C@@H](C1)N2C(=O)Nc1ccc(C)c(-c2cncc(F)c2)c1 (single isomer, unassigned) [Example 13, cis-methyl 6-((3-(5-fluoropyridin-3-yl)-4-methylphenyl)carbamoyl)-6-azabicyclo[3.1.1]heptane-3-carboxylate]	3.4 µM	1 to 10 µM
COc1ccc(-c2cc(NC(=O)N3C4CCCC3C4)ccc2C)cn1 [Example 67, N-(3-(6-methoxypyridin-3-yl)-4-methylphenyl)-6-azabicyclo[3.1.1]heptane-6-carboxamide]	0.4 µM	0.0001 to 1 µM
Cc1nnc([C@]23C[C@H](C)C[C@H](C2)N3C(=O)Nc2cc(-c3cncc(F)c3)c(Cl)cc2F)o1 (single isomer, unassigned) [Example 133, cis-N-(4-chloro-2-fluoro-5-(5-fluoropyridin-3-yl)phenyl)-3-methyl-1-(5-methyl-1,3,4-oxadiazol-2-yl)-6-azabicyclo[3.1.1]heptane-6-carboxamide]	38 µM	> 10 µM
Cc1nnc([C@]23C[C@H](C)C[C@H](C2)N3C(=O)Nc2ccc(C(F)(F)F)c(-c3cncc(F)c3)c2)o1 (single isomer, unassigned) [Example 121, cis-N-(3-(5-fluoropyridin-3-yl)-4-(trifluoromethyl)phenyl)-3-methyl-1-(5-methyl-1,3,4-oxadiazol-2-yl)-6-azabicyclo[3.1.1]heptane-6-carboxamide]	0.034 µM	0.0001 to 1 µM
C[C@@H]1CC2C[C@H](C1)N2C(=O)Nc1ccc(C(F)F)c(-c2cncc(F)c2)c1 [Example 42, cis-N-(4-(difluoromethyl)-3-(5-fluoropyridin-3-yl)phenyl)-3-methyl-6-azabicyclo[3.1.1]heptane-6-carboxamide]	0.06 µM	0.0001 to 1 µM
Cc1nnc([C@]23C[C@H](C)C[C@H](C2)N3C(=O)Nc2ccc(C)c(-c3cncc(F)c3)c2)o1 (single isomer, unassigned) [Example 128, cis-N-(3-(5-fluoropyridin-3-yl)-4-methylphenyl)-3-methyl-1-(5-methyl-1,3,4-oxadiazol-2-yl)-6-azabicyclo[3.1.1]heptane-6-carboxamide]	11.6 µM	> 10 µM
